Results published in paper PMC8312697, “Mechanistic Investigations Support Liver Safety of Ubrogepant” (Toxicological Sciences, 2020).

Columns and labels:
HepG2 cell = HepG2 cell glucose/galactose shift model; type: cell-based, human
[1] = test system: HEPATOPAC hepatocyte coculture; test: HEPATOPAC urea synthesis (mitochondrial function); type: cell-based, rat; settings: 50 µM
Experimental: Effects of test agents on mitochondrial function were assessed from media collected in the same HEPATOPAC studies by monitoring urea synthesis rates ([Khetani et al., 2013]).

[2] = biological target: T1, bile salt export pump (BSEP) (Homo sapiens, UniProt O95342); test: HEPATOPAC taurocholic acid transport / bile acid excretion; type: cell-based
T1 construct: host or cells: human hepatocytes in HEPATOPAC micropatterned co-culture
T1 sequence (O95342 whole entry): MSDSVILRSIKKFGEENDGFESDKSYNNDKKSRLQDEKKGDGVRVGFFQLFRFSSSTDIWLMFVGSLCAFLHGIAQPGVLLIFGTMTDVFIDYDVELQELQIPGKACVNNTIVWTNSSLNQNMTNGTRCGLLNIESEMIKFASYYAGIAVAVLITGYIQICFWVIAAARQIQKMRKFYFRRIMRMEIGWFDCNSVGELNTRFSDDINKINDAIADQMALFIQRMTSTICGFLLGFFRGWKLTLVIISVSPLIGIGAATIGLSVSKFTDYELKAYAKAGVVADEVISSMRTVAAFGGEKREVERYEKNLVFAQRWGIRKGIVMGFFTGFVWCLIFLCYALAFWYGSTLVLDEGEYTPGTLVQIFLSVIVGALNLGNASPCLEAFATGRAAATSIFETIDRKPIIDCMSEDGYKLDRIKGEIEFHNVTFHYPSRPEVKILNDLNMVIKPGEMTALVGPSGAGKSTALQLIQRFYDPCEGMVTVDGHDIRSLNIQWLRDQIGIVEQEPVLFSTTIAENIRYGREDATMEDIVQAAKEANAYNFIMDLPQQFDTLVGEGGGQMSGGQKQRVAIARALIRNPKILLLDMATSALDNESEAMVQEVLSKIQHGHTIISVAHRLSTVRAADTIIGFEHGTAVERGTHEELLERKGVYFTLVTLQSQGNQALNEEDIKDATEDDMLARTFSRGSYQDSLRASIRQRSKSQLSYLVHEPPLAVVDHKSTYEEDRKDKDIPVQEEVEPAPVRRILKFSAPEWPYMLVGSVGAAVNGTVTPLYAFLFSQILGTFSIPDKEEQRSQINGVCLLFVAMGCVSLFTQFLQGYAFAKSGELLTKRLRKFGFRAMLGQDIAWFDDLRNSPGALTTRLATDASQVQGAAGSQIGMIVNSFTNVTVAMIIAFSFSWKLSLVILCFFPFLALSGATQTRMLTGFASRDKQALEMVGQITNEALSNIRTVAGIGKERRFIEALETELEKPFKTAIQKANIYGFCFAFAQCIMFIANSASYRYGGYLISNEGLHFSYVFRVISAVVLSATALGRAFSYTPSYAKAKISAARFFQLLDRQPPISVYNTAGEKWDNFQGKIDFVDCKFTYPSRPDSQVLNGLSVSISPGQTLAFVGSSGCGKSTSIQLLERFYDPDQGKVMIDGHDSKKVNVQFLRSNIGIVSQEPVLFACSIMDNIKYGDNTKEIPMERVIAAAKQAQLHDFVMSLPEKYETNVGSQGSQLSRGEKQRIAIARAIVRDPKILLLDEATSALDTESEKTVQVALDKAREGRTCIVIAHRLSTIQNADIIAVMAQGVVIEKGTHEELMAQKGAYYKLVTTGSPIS
Source text: The human HEPATOPAC model was also used to measure the effects of test agents on transport of taurocholic acid as an indicator of altered bile salt export pump (BSEP) function ([Li et al., 2017]). Safe dose perspective is gained from comparing in vitro concentration response results to calculated liver inlet Cmax (maximum plasma concentration).

NTCP = biological target: T2, NTCP (Homo sapiens, UniProt Q14973); test: NTCP uptake transporter inhibition assay; type: cell-based; settings: for inhibition of NTCP-mediated probe substrate transport: uptake transporter inhibition assay
T2 construct: expressed in transfected cells; host or cells: CHO (telcagepant); HEK293 (ubrogepant, MK-3207)
T2 sequence (Q14973 1-349): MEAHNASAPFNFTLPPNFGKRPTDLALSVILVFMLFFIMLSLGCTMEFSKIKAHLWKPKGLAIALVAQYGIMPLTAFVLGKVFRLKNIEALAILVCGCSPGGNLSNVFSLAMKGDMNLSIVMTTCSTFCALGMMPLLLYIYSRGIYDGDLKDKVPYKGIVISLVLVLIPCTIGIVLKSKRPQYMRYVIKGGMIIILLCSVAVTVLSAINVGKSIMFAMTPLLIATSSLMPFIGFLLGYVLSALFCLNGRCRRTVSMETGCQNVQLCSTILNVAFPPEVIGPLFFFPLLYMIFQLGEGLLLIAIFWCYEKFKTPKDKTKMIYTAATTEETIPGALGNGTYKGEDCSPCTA
Experimental: To assess the functional impact of ubrogepant on the human ABC efflux transporters BSEP, MRP3, and MRP4, in vitro vesicular transport inhibition assays were conducted by Solvo Biotechnology (Szeged, Hungary). The ability of ubrogepant to inhibit the BSEP-mediated transport (and accumulation) of a probe substrate was tested at concentrations ranging from 0.04 – 30 μM, where the latter defined the upper limit of compound solubility in the BSEP assay buffer. For the MRP3 and MRP4 vesicle-based transporter assessments, ubrogepant concentrations of 0.1 to 70 μM were used. To assess the functional impact of ubrogepant on the human SLC (uptake) transporter NTCP, in vitro experiments were performed using HEK293 cells stably expressing NTCP. The ability of ubrogepant to inhibit NTCP-mediated uptake (and accumulation) of taurocholate was tested at concentrations ranging from 0.04 – 30 μM.
To assess the functional impact of MK-3207 on the human ABC efflux transporters BSEP, MRP3 and MRP4, in vitro vesicular transport inhibition assays were conducted by Solvo Biotechnology (Szeged, Hungary) and overseen by DSSI. BSEP transport was assessed in the presence of 0.5-30 µM MK-3207; MRP3 and MRP4 transport was assessed in the presence of 0.11-80 µM MK-3207. The upper limits of these ranges were determined by compound solubility in each assay buffer. NTCP transporter inhibition was assessed in NTCP-expressing HEK293 cells in the presence of 0.03 – 25 µM MK-3207.

CGRP receptor = biological target: T3, CGRP receptor (Homo sapiens, UniProt O60894+Q16602); test: CGRP-stimulated cAMP response in HEK293 cells; type: cell-based; settings: read-out: Potency IC50
T3 construct: expressed in transfected cells; host or cells: HEK293
T3 sequence (Q16602 23-461): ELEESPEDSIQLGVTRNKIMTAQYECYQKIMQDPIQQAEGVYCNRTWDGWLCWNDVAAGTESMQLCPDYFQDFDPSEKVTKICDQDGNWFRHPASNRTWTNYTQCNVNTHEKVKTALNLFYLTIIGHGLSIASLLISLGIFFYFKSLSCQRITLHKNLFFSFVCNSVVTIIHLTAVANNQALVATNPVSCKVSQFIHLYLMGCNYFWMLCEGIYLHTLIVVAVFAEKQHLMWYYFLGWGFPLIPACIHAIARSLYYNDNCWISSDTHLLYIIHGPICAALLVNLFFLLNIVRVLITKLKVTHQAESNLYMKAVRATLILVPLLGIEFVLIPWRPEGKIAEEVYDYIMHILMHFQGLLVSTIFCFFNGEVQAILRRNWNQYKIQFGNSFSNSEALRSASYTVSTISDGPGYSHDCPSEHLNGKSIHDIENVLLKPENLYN
T3 sequence (O60894 27-148): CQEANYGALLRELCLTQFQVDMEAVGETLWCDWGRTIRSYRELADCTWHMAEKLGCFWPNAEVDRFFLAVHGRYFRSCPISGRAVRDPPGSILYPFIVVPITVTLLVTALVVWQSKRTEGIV

mouse = test: Conventional nonclinical toxicology study, mouse
dog = test: Conventional nonclinical toxicology study, dog; settings: 1M dog
[3] = test system: Nrf2 oxidative stress and Nrf1 proteasomal stress pathways; test: In vitro rat HEPATOPAC gene expression BA-LRA; type: cell-based; settings: 50 μM

SMILES | mitochondrial toxicity potential (HepG2 cell) | effect on urea (mitochondrial function) [1] | effect on bile acid excretion ([2]; 4.4× estimated unbound liver Cmax (highest testable concentration, solubility)) | inhibition of NTCP-mediated probe substrate transport (NTCP) | IC50 (CGRP receptor) [nM] | Pivotal conventional nonclinical toxicology study liver findings (mouse; 6M mouse) | exposure margin (mouse; 6M mouse) [×] | Pivotal conventional nonclinical toxicology study liver findings (dog) | exposure margin (dog) [×] | BA-LRA score [3] | effect on bile acid excretion ([2]; 10.7× estimated unbound liver Cmax) | NTCP inhibition (NTCP; CHO cells expressing NTCP, up to 25 μM) [%] | IC50 (NTCP; taurocholate uptake, read-out: NTCP estimated IC50) [nM] | Pivotal conventional nonclinical toxicology study liver findings (mouse; 3M mouse) | exposure margin (mouse; 3M mouse) [×]
O=C(CN1C(=O)C2(CCCC2)NC[C@H]1c1cc(F)cc(F)c1)Nc1ccc2c(c1)C[C@@]1(C2)C(=O)Nc2ncccc21 [MK-3207] | did not raise mitochondrial safety concerns | No effect on urea | no significant impact was observed on biliary excretion | No inhibition was observed | 0.12 | no liver safety signal | 12 | slight periportal vacuolation with < 4× ALT/AST associated with excessive body weight loss | 17 | > 0.2 | – | – | – | – | –
O=C(N[C@@H]1CC[C@@H](c2cccc(F)c2F)CN(CC(F)(F)F)C1=O)N1CCC(n2c(=O)[nH]c3ncccc32)CC1 [Telcagepant] | did not raise mitochondrial safety concerns | No effect on urea | – | inhibited | – | < 2× ALT/AST with no liver histopathology | 14 | – | – | > 0.2 | No effect on bile acid excretion | > 50 | 19400 | – | –
C[C@@H]1[C@H](c2ccccc2)C[C@H](NC(=O)c2cnc3c(c2)C[C@@]2(C3)C(=O)Nc3ncccc32)C(=O)N1CC(F)(F)F [Ubrogepant] | – | – | – | – | 0.08 | – | – | – | – | – | – | – | – | no liver safety signal | 80
